Experiment [1] concerns the target Acetylcholinesterase (Electrophorus electricus) (UniProt O42275). The following applies: at 2 mg/mL.
Description: Inhibition of electric eel AChE at 2 mg/ml by Ellman's method
The target of experiment [2] is Cholinesterase (Equus caballus) (UniProt P81908). The following applies: at 2 mg/mL.
Description: Inhibition of horse BChE at 2 mg/ml by Ellman's method

The structures appear in SMILES notation.

Cholinesterase (Equus caballus), sequence (P81908 whole entry): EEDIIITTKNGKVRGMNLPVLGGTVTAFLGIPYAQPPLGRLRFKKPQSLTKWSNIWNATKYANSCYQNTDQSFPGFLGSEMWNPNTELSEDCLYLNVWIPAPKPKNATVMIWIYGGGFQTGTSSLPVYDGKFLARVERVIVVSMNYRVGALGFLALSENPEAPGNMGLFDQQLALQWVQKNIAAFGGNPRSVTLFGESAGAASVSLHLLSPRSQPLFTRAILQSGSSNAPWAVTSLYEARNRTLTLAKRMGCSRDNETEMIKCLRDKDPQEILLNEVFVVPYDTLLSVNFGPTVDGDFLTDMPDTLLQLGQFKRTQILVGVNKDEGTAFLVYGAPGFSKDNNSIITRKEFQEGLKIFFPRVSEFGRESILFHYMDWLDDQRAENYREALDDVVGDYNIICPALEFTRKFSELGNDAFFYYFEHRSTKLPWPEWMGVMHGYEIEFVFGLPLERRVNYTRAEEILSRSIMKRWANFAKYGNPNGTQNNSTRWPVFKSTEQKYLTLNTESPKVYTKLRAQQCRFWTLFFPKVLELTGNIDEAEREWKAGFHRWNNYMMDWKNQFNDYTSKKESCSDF
Acetylcholinesterase (Electrophorus electricus), sequence (O42275 24-633 limits assumed): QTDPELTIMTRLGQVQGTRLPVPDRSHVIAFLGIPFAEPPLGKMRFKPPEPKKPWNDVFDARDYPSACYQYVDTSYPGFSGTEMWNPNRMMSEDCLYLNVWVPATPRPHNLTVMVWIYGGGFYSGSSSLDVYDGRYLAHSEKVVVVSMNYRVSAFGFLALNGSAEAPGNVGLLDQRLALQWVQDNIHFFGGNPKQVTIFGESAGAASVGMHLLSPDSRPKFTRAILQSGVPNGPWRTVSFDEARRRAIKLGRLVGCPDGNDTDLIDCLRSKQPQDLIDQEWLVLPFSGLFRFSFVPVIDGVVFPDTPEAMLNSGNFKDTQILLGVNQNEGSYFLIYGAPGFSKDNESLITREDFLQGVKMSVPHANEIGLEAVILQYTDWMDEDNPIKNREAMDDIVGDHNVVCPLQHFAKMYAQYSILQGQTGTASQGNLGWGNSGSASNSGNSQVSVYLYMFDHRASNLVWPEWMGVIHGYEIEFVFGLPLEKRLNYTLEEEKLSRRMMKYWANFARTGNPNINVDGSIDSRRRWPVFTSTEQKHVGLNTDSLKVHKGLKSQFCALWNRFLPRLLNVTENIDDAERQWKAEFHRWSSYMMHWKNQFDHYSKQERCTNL

`COC(=O)C[C@](O)(CCC(C)(C)O)C(=O)O[C@@H]1C(OC)=C[C@]23CCCN2CCc2cc4c(cc2[C@H]13)OCO4`: the inhibition (in general, the relative decrease from the control value, in per cent) in experiment [1] was -5.71%; in experiment [2] it was 1.48%.

For `CCCCCCCCCCC1=C(C)C(=O)C(OC)=C(OC)C1=O`, the values for the inhibition in experiment [1] and in experiment [2] were 21.8% and 0.01%, respectively.

For the molecule `C=C(C)[C@@H]1[C@H]2OC(=O)[C@@H]1[C@]1(O)C[C@H]3O[C@]34C(=O)O[C@H]2[C@]14C`, the figures for the inhibition in experiment [1] and in experiment [2] were 11.4% and -3.55%, respectively.

In the case of `CSC(=S)NCc1c[nH]c2ccccc12`, the values for the inhibition in experiment [1] and in experiment [2] were -0.26% and -5.64%, respectively.

`C[C@H]1O[C@@H](O[C@H]2[C@@H](O)C[C@H](O[C@H]3[C@@H](O)C[C@H](O[C@H]4CC[C@@]5(C)[C@H](CC[C@@H]6[C@@H]5CC[C@]5(C)[C@@H](C7=CC(=O)OC7)CC[C@]65O)C4)O[C@@H]3C)O[C@@H]2C)C[C@H](O)[C@@H]1O`: the inhibition in experiment [1] is -1.83%; in experiment [2] it was -0.78%.

Consider `COc1c2ccoc2cc2oc(C)cc(=O)c12`, for which the inhibition in experiment [1] worked out at 7%; in experiment [2], 16.2%.

`COc1cc(O)c2c(c1)oc(=O)c1c3cc(O)c(O)cc3oc21`: the inhibition amounted to 11.8% in experiment [1] and 11.1% in experiment [2].

Turning to `CN1Cc2c(ccc3c2OCO3)[C@@H]2[C@H]1c1cc3c(cc1C[C@@H]2O)OCO3`, the results for the inhibition in experiment [1] and in experiment [2] were 29.8% and 6.72%, respectively.

Take `COc1cc(-c2oc3cc(O)cc(O)c3c(=O)c2OC2O[C@H](CO[C@@H]3O[C@@H](C)[C@H](O)[C@@H](O)[C@H]3O)[C@@H](O)[C@H](O)[C@H]2O)ccc1O` (stereo partly specified): the inhibition in experiment [1] came to 24.8%; in experiment [2], 0.75%.

With `O=C(O)C1=C[C@@H](O)[C@@H](O)[C@H](O)C1`, the inhibition is -8.33% in experiment [1] and -4.96% in experiment [2].

`C[C@@H]1C[C@H]2O[C@@H]2/C=C\C=C\C(=O)Cc2c(Cl)c(O)cc(O)c2C(=O)O1`: the inhibition in experiment [1] is 17.4%; in experiment [2], -1.22%.

With `COc1ccc(C(=O)O[C@H]2CC[C@@]3(C)[C@@H]4CC[C@H]5[C@]6(O)C[C@H](O)[C@@]7(O)[C@@H](CN8C[C@@H](C)CC[C@H]8[C@@]7(C)O)[C@]6(O)C[C@@]53O[C@]24O)cc1OC`, the figures for the inhibition in experiment [1] and in experiment [2] were 21.8% and -4.13%, respectively.

For `CC(C)=CCCC1=CC(=O)c2c(O)ccc(O)c2C1=O`, the inhibition in experiment [1] is 1.52%; in experiment [2], -2.66%.

On to `COc1c2c(cc3c1OCO3)CCN(C)C2`, for which the values for the inhibition in experiment [1] and in experiment [2] were 9.58% and 29.9%, respectively.

Turning to `CC1(C)CC[C@]2(C(=O)O)CC[C@]3(C)C(=CC[C@@H]4[C@@]5(C)CC[C@H](O)C(C)(C)[C@@H]5CC[C@]43C)[C@@H]2C1`, the inhibition in experiment [1] amounted to 10.2%; in experiment [2], 0.92%.

Regarding `COc1ccc(-c2coc3cc(O)cc(O)c3c2=O)cc1`, the values for the inhibition in experiment [1] and in experiment [2] were 2.29% and -9.1%, respectively.

As to `COc1cc(/C=C/c2ccccc2)oc(=O)c1`, the inhibition was -0.87% in experiment [1] and -0.13% in experiment [2].

In the case of `O=c1c(-c2ccc(O)cc2)coc2cc(O)ccc12`, the inhibition is -3.93% in experiment [1] and 0.02% in experiment [2].

For `CC1(C)CCC[C@]2(C)[C@H]3CC(=O)O[C@]3(C)CC[C@@H]12`, the inhibition in experiment [1] was -6.49%; in experiment [2], -1.03%.

Regarding `C/C1=C/CCC(C)(O)/C=C\C(C(C)C)C(OC(=O)c2ccc(O)cc2)C1` (stereo unspecified), the results for the inhibition in experiment [1] and in experiment [2] were 23.7% and -0.77%, respectively.

Take `O=c1c(-c2ccc(O)cc2)coc2cc(O[C@@H]3O[C@H](CO)[C@@H](O)[C@H](O)[C@H]3O)cc(O)c12`: the inhibition in experiment [1] came out at 24.6%; in experiment [2], 1.82%.

On to `C[C@@H]1O[C@@H](O[C@H]2[C@H](Oc3cc(O)c4c(=O)cc(-c5ccc(O)cc5)oc4c3)O[C@H](CO)[C@@H](O)[C@@H]2O)[C@H](O)[C@H](O)[C@H]1O`, for which the inhibition in experiment [1] was 27.2%; in experiment [2] it was -2.37%.

Turning to `CC(C)=CCC[C@]1(C)C=Cc2c(O)c3c(c(CC=C(C)C)c2O1)O[C@]12C(=C[C@@H]4C[C@H]1C(C)(C)O[C@@]2(C/C=C(/C)C(=O)O)C4=O)C3=O`, the inhibition in experiment [1] turned out to be 1.17%; in experiment [2], 8.47%.

Consider `O=c1c(O)c(-c2ccc(O)c(O)c2)oc2cc(O)ccc12`, for which the inhibition in experiment [1] came to 27.5%; in experiment [2] it was 2.06%.

With `CCCCCCCCCCCCC/C=C/[C@@H](O)[C@H](CO)NC(=O)CCCCC`, the inhibition was found to be 9.07% in experiment [1] and 4.36% in experiment [2].

Consider `COc1ccc(-c2cc(=O)c3ccc(O)cc3o2)cc1`, for which the inhibition in experiment [1] amounted to 30.6%; in experiment [2], 6.46%.

With `COc1cc2c(cc1O)C[C@H]1c3c(cc(O)c(OC)c3-2)CCN1C`, the inhibition in experiment [1] turned out to be 9.51%; in experiment [2] it was 1.24%.

With `CCC12C=CCN3CC[C@@]4(c5ccc(OC)cc5N(C)[C@H]4[C@@](O)(C(=O)OC)[C@@H]1OC(C)=O)[C@@H]32` (stereo partly specified), the inhibition in experiment [1] is 2.49%; in experiment [2] it was -7.45%.

Turning to `C=C(C)[C@@H]1CC=C(C(=O)O)CC1`, the inhibition in experiment [1] was -3.9%; in experiment [2], 3.58%.

With `OC[C@H]1O[C@@H](O[C@@H]2OC=C[C@H]3[C@H](O)[C@@H]4O[C@]4(CO)[C@@H]23)[C@H](O)[C@@H](O)[C@@H]1O`, the inhibition in experiment [1] was 11.3%; in experiment [2], -5.36%.

For `CC1=CC(=O)C(C(C)C)=CC1=O`, the inhibition in experiment [1] is 7.9%; in experiment [2], -0.33%.

For the molecule `C[C@H]1C/C=C/[C@H]2[C@@H]3O[C@]3(C)[C@@H](C)[C@H]3[C@H](Cc4ccccc4)NC(=O)[C@]32OC(=O)O/C=C/[C@@](C)(O)C1=O`, the inhibition in experiment [1] came to 5.91%; in experiment [2], 9.25%.

With `O=c1oc2c(O)c(O)cc3c(=O)oc4c(O)c(O)cc1c4c23`, the inhibition in experiment [1] was -6.13%; in experiment [2], 4.4%.

On to `CN1C(=O)CC[C@H]1c1cccnc1`, for which the figures for the inhibition in experiment [1] and in experiment [2] were 28.6% and -0.23%, respectively.

For `C=C[C@](C)(O)CC[C@@H]1[C@@]2(C)CCCC(C)(C)[C@@H]2CC[C@@]1(C)O`, the figures for the inhibition in experiment [1] and in experiment [2] were 3.08% and -2.61%, respectively.

As for `O=c1oc2ccccc2c(O)c1Cc1c(O)c2ccccc2oc1=O`, the inhibition in experiment [1] is 12.3%; in experiment [2], 5.48%.

For the molecule `C[C@H]1O[C@@H](Oc2c(-c3cc(O)c(O)c(O)c3)oc3cc(O)cc(O)c3c2=O)[C@@H](O)[C@@H](O)[C@@H]1O`, the results for the inhibition in experiment [1] and in experiment [2] were 20.9% and -2.1%, respectively.

`COc1ccc2[nH]cc(CCNC(C)=O)c2c1`: the values for the inhibition in experiment [1] and in experiment [2] were 15.5% and 1.01%, respectively.

In the case of `CC(C)[C@@]1(O)[C@@H](OC(=O)c2cc[nH]c2)[C@@]2(O)[C@]3(C)C[C@@]4(O)O[C@@]5([C@H](O)[C@@H](C)CC[C@]35O)[C@@]2(O)[C@@]41C`, the inhibition in experiment [1] was 21.7%; in experiment [2], -2.13%.

In the case of `C[C@H]1[C@H](C)CC[C@]2(C(=O)O)CC[C@]3(C)C(=CC[C@@H]4[C@@]5(C)C[C@@H](O)[C@H](O)[C@@](C)(CO)[C@@H]5[C@H](O)C[C@]43C)[C@H]12`, the inhibition in experiment [1] is -1.33%; in experiment [2], -7.93%.

For the molecule `C[C@@H]1C/C=C/C=C/C=C/C=C/[C@H](O[C@@H]2O[C@H](C)[C@@H](O)[C@H](N)[C@@H]2O)C[C@@H]2O[C@](O)(C[C@@H](O)C[C@H]3O[C@@H]3/C=C/C(=O)O1)C[C@H](O)[C@H]2C(=O)O`, the inhibition in experiment [1] is -4.37%; in experiment [2] it was -8.59%.

As to `COc1cc(C2Oc3cc([C@H]4Oc5cc(O)cc(O)c5C(=O)[C@@H]4O)ccc3OC2CO)ccc1O` (stereo partly specified), the inhibition in experiment [1] was 7.08%; in experiment [2] it was -7.94%.

With `CN1CCc2cc3c(cc2C(=O)Cc2ccc4c(c2C1)OCO4)OCO3`, the values for the inhibition in experiment [1] and in experiment [2] were 31.1% and 7.56%, respectively.

Regarding `O=C(/C=C/c1ccc(O)c(O)c1)c1ccc(O[C@@H]2O[C@H](CO)[C@@H](O)[C@H](O)[C@H]2O)c(O)c1O`, the results for the inhibition in experiment [1] and in experiment [2] were 22.2% and 2.03%, respectively.

Turning to `C=C1[C@@H](C)[C@H]2[C@H](Cc3ccccc3)NC(=O)[C@]23[C@H](OC(C)=O)/C=C/[C@@](C)(O)C(=O)[C@@H](C)C/C=C/[C@H]3[C@@H]1O`, the inhibition is -2.15% in experiment [1] and 3.92% in experiment [2].

On to `COc1c2occc2cc2ccc(=O)oc12`, for which the figures for the inhibition in experiment [1] and in experiment [2] were 4.4% and 8.34%, respectively.

As for `C[N+](C)(C)CC(O)CC(=O)O` (racemic), the results for the inhibition in experiment [1] and in experiment [2] were -6.56% and -2.91%, respectively.

Consider `O=c1cc(-c2ccc(O)c(O)c2)oc2cc(O)cc(O)c12`, for which the figures for the inhibition in experiment [1] and in experiment [2] were 13.6% and 0.42%, respectively.

`O=C(O)c1cc(N(Cc2ccccc2O)Cc2ccccc2O)ccc1O`: the results for the inhibition in experiment [1] and in experiment [2] were 2.48% and 1.67%, respectively.

As to `Cc1c2ccncc2c(C)c2c1[nH]c1ccccc12`, the inhibition in experiment [1] was -1.87%; in experiment [2] it was 44.1%.

For the molecule `CC[C@H]1CN2CCc3cc(OC)c(OC)cc3[C@@H]2C[C@@H]1C[C@H]1NCCc2cc(OC)c(OC)cc21`, the inhibition stood at 13.7% in experiment [1] and 1.38% in experiment [2].

Take `COc1cc([C@@H]2c3cc4c(cc3[C@H](O)[C@H]3COC(=O)[C@H]23)OCO4)cc(OC)c1OC`: the results for the inhibition in experiment [1] and in experiment [2] were 8.74% and -9.54%, respectively.

For `COc1cc2c(cc1CC=C(C)C)C(=O)C[C@@H](c1ccc(O)cc1)O2`, the inhibition in experiment [1] stood at 23.2%; in experiment [2], 4.89%.

With `COc1ccc2cc1Oc1ccc(cc1)C[C@H]1c3cc(c(OC)cc3CCN1C)Oc1c(OC)c(OC)c(OC)c3c1[C@H](C2)N(C)CC3`, the inhibition in experiment [1] was 23.4%; in experiment [2] it was -7.66%.

As for `CN1C[C@H](CO)C[C@@H]2c3cccc4[nH]cc(c34)C[C@H]21`, the inhibition amounted to 6.82% in experiment [1] and 15.3% in experiment [2].

In the case of `COc1c2occc2c(OC)c2c(=O)cc(C)oc12`, the inhibition in experiment [1] came out at 7.57%; in experiment [2], 3.3%.

On to `CN1c2ccccc2C(=O)N2CCc3c([nH]c4ccccc34)[C@@H]21`, for which the inhibition in experiment [1] was 12.4%; in experiment [2], 26%.

For `O=C1C[C@@H](c2ccccc2)Oc2cc(O)cc(O)c21`, the values for the inhibition in experiment [1] and in experiment [2] were 27.3% and 1.45%, respectively.
